Laboratory results reported in ChEMBL document CHEMBL5550222, “Synthesis and Biological Evaluation of Novel Psidium Meroterpenoid Derivatives against Cisplatin-Induced Acute Kidney Injury” (J Med Chem, 2024).
Active and inactive are the calls of the source. No cut-off for these calls is given here.

Experiments:
HK-2 [1] = test: Protection against cisplatin-induced nephrotoxicity in human HK-2 cells at 1 to 10 uM preincubated with compound for 2 hrs followed by cisplatin induction and measured after 72 hrs by MTT assay; type: functional, cell-based; details: dose 1-10 µM, time 74.0 hrs
Mus musculus [2] = test: Protection against cisplatin-induced nephrotoxicity in po dosed C57BL6/J mouse assessed as reduction in SCR level in kidney Preadministered with compound for 2 days followed by cisplatin addition on day 3 and measured 72 hrs post cisplatin administration; type: functional, organism-based; details: dose 25-100 mg/kg, time 5.0 day
Mus musculus [3] = test: Protection against cisplatin-induced nephrotoxicity in C57BL6/J mouse assessed as reduction in BUN level in kidney at 100 mg/kg, po preadministered with compound for 2 days followed by cisplatin addition on day 3 and measured 72 hrs post cisplatin administration; type: functional, organism-based; details: time 5.0 day
Mus musculus [4] = test: Protection against cisplatin-induced nephrotoxicity in C57BL6/J mouse assessed as reduction in SCR level in kidney at 100 mg/kg, po preadministered with compound for 2 days followed by cisplatin addition on day 3 and measured 72 hrs post cisplatin administration; type: functional, organism-based; details: time 5.0 day
Lewis lung carcinoma = test: Antitumor activity against cisplatin-induced mouse Lewis lung carcinoma cell line xenografted C57BL/6J mouse assessed as reduction in tumor mass at 25 to 100 mg/kg, po preadministered with compound for 2 days followed by cisplatin addition on day 3 and measured 72 hrs post cisplatin administration; type: functional, organism-based; details: dose 25-100 mg/kg, time 5.0 day
HK-2 [5] = test: Upregulation of ATP7B mRNA level in human HK-2 cells at 2.5 to 10 uM by RT-qPCR analysis; type: functional, cell-based; details: dose 2.5-10 µM
[6] = Cmax in ICR mouse 50 mg/kg, po measured for 24 hrs by HPLC-MS analysis; type: ADME, organism-based; details: in vivo
[7] = Cmax in ICR mouse 1 mg/kg, iv measured for 24 hrs by HPLC-MS analysis; type: ADME, organism-based; details: in vivo
[8] = AUC (0 to t) in ICR mouse 50 mg/kg, po measured for 24 hrs by HPLC-MS analysis; type: ADME, organism-based; details: in vivo
[9] = AUC (0 to t) in ICR mouse 1 mg/kg, iv measured for 24 hrs by HPLC-MS analysis; type: ADME, organism-based; details: in vivo
[10] = AUC (0 to infinity) in ICR mouse 50 mg/kg, po measured for 24 hrs by HPLC-MS analysis; type: ADME, organism-based; details: in vivo
[11] = AUC (0 to infinity) in ICR mouse 1 mg/kg, iv measured for 24 hrs by HPLC-MS analysis; type: ADME, organism-based; details: in vivo
[12] = Terminal half life in ICR mouse 50 mg/kg, po measured for 24 hrs by HPLC-MS analysis; type: ADME, organism-based; details: in vivo, read-out: beta t1/2 (converted)
[13] = Terminal half life in ICR mouse 1 mg/kg, iv measured for 24 hrs by HPLC-MS analysis; type: ADME, organism-based; details: in vivo, read-out: beta t1/2 (converted)
[14] = MRT (0 to t) in ICR mouse 50 mg/kg, po measured for 24 hrs by HPLC-MS analysis; type: ADME, organism-based; details: in vivo
[15] = MRT (0 to t) in ICR mouse 1 mg/kg, iv measured for 24 hrs by HPLC-MS analysis; type: ADME, organism-based; details: in vivo
[16] = MRT (0 to infinity) in ICR mouse 50 mg/kg, po measured for 24 hrs by HPLC-MS analysis; type: ADME, organism-based; details: in vivo
[17] = MRT (0 to infinity) in ICR mouse 1 mg/kg, iv measured for 24 hrs by HPLC-MS analysis; type: ADME, organism-based; details: in vivo
[18] = Clearance in ICR mouse 1 mg/kg, iv measured for 24 hrs by HPLC-MS analysis; type: ADME, organism-based; details: in vivo
[19] = Volume of distribution in ICR mouse 1 mg/kg, iv measured for 24 hrs by HPLC-MS analysis; type: ADME, organism-based; details: in vivo
[20] = Oral bioavailability in ICR mouse 50 mg/kg measured for 24 hrs by HPLC-MS analysis; type: ADME, organism-based; details: in vivo
[21] = Acute toxicity in C57BL/6J mouse assessed as animal death at 1 g/Kg, po measured for 2 weeks; type: organism-based; details: in vivo, 1000 mg/kg, 336 h
[22] = Acute toxicity in C57BL/6J mouse assessed as abnormal behavior at 1 g/Kg, po measured for 2 weeks; type: organism-based; details: in vivo, 1000 mg/kg, 336 h
[23] = Acute toxicity in C57BL/6J mouse assessed as heart damage at 1 g/Kg, po measured for 2 weeks by H and E staining based analysis; type: organism-based; details: in vivo, 1000 mg/kg, 336 h
[24] = Acute toxicity in C57BL/6J mouse assessed as liver damage at 1 g/Kg, po measured for 2 weeks by H and E staining based analysis; type: organism-based; details: in vivo, 1000 mg/kg, 336 h
[25] = Acute toxicity in C57BL/6J mouse assessed as spleen damage at 1 g/Kg, po measured for 2 weeks by H and E staining based analysis; type: organism-based; details: in vivo, 1000 mg/kg, 336 h
[26] = Acute toxicity in C57BL/6J mouse assessed as lung damage at 1 g/Kg, po measured for 2 weeks by H and E staining based analysis; type: organism-based; details: in vivo, 1000 mg/kg, 336 h
[27] = Acute toxicity in C57BL/6J mouse assessed as kidney damage at 1 g/Kg, po measured for 2 weeks by H and E staining based analysis; type: organism-based; details: in vivo, 1000 mg/kg, 336 h
[28] = Acute toxicity in C57BL/6J mouse assessed as brain damage at 1 g/Kg, po measured for 2 weeks by H and E staining based analysis; type: organism-based; details: in vivo, 1000 mg/kg, 336 h
[29] = Acute toxicity in C57BL/6J mouse assessed as stomach damage at 1 g/Kg, po measured for 2 weeks by H and E staining based analysis; type: organism-based; details: in vivo, 1000 mg/kg, 336 h
[30] = Acute toxicity in C57BL/6J mouse assessed as small intestine damage at 1 g/Kg, po measured for 2 weeks by H and E staining based analysis; type: organism-based; details: in vivo, 1000 mg/kg, 336 h
[31] = Acute toxicity in C57BL/6J mouse assessed as ovary damage at 1 g/Kg, po measured for 2 weeks by H and E staining based analysis; type: organism-based; details: in vivo, 1000 mg/kg, 336 h
[32] = Cytotoxicity against human HK-2 cells incubated for 72 hrs by MTT assay; type: toxicity, cell-based
HK-2 [33] = test: Protection against cisplatin-induced nephrotoxicity in human HK-2 cells assessed as cell viability at 5 uM preincubated with compound for 2 hrs followed by cisplatin induction and measured after 72 hrs by MTT assay (reference value: 45.1 +/- 3.2%); type: functional; details: time 74 hrs, read-out: Activity
HK-2 [34] = test: Protection against cisplatin-induced nephrotoxicity in human HK-2 cells assessed as cell viability at 10 uM preincubated with compound for 2 hrs followed by cisplatin induction and measured after 72 hrs by MTT assay (reference value: 45.1 +/- 3.2%); type: functional; details: time 74 hrs, read-out: Activity
HK-2 [35] = test: Protection against cisplatin-induced nephrotoxicity in human HK-2 cells at 5 to 10 uM preincubated with compound for 2 hrs followed by cisplatin induction and measured after 72 hrs by MTT assay; type: functional, cell-based; details: dose 5-10 µM, time 74.0 hrs
HK-2 [36] = test: Protection against cisplatin-induced nephrotoxicity in human HK-2 cells preincubated with compound for 2 hrs followed by cisplatin induction and measured after 72 hrs by MTT assay; type: functional, cell-based; details: dose 1-10 µM, time 74.0 hrs
HK-2 [37] = test: Protection against cisplatin-induced nephrotoxicity in human HK-2 cells increase in viability at 10 uM preincubated with compound for 2 hrs followed by cisplatin induction and measured after 72 hrs by MTT assay (reference value: 45.1%); type: functional; details: time 74 hrs

COc1c(CO)c(OC)c(C(=O)c2ccccc2)c2c1C[C@H]1CC/C(C)=C/CC(C)(C)/C=C/C[C@]1(C)O2
Activity (HK-2 [1]): Active
Activity (Mus musculus [2]): Dose-Dependent Effect
Activity (Mus musculus [3]): Active
Activity (Mus musculus [4]): Active
Activity (Lewis lung carcinoma): Active
Activity (HK-2 [5]): Active
Cmax [6]: 266 ng/mL
Cmax [7]: 485 ng/mL
AUC(0-t) at 24 h [8]: 783 ng·h/mL
AUC(0-t) at 24 h [9]: 137 ng·h/mL
AUC(0-inf) [10]: 869 ng·h/mL
AUC(0-inf) [11]: 146 ng·h/mL
half-life [12]: 150 min
half-life [13]: 148 min
MRT last at 24 h [14]: 2.29 h
MRT last at 24 h [15]: 1.59 h
MRT inf [16]: 3.21 h
MRT inf [17]: 2.22 h
clearance [18]: 114 mL/min/kg
Vd [19]: 24.4 L/kg
bioavailability [20]: 11.9%
Activity [21]: Non-Toxic
Activity [22]: Non-Toxic
Activity [23]: Non-Toxic
Activity [24]: Non-Toxic
Activity [25]: Non-Toxic
Activity [26]: Non-Toxic
Activity [27]: Non-Toxic
Activity [28]: Non-Toxic
Activity [29]: Non-Toxic
Activity [30]: Non-Toxic
Activity [31]: Non-Toxic

COc1c(C=O)c(OC)c(C(=O)c2ccccc2)c2c1CC1CC/C(C)=C/CC(C)(C)/C=C/CC1(C)O2 (stereo unspecified)
IC50 at 72 h [32]: > 10 µM
viability at 5 µM (HK-2 [33]): 82.8%
viability at 10 µM (HK-2 [34]): 90.6%
Activity (HK-2 [35]): Active
Activity (HK-2 [36]): Dose-Dependent Effect
Activity (HK-2 [37]): >90%
Activity (Mus musculus [2]): Dose-Dependent Effect
Activity (Lewis lung carcinoma): Active
Activity (HK-2 [5]): Active
